Among the data in article PMC7140427, “A Unique GSK-3β inhibitor B10 Has a Direct Effect on Aβ, Targets Tau and Metal Dyshomeostasis, and Promotes Neuronal Neurite Outgrowth” (Cells, 2020) are IC50 values, retold here.

For the test, the target named is T1, GSK-3β (Homo sapiens, UniProt P49841).
T1 construct: gene GSK3B
Nature of the test: caliper mobility shift kinase assay with peptide FAM-P15 and ATP. Type of test: biochemical.

T1 sequence (P49841 whole entry): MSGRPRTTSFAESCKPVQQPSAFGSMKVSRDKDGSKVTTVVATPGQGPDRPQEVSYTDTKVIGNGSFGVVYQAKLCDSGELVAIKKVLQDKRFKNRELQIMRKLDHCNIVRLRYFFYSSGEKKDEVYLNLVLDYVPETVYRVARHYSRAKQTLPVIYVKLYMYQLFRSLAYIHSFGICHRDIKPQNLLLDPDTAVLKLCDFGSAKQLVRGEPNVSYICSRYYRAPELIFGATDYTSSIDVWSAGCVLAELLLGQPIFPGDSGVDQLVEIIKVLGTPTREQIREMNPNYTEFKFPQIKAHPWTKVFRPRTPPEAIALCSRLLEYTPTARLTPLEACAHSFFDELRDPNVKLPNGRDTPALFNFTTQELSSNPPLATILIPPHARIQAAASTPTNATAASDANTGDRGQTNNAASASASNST

Take `Oc1cc(-c2c[nH]c3ncc(-c4ccc(CNc5ccncc5)cc4)cc23)cc2cccnc12` [B10, 6-(5-(4-((pyridin-4-ylamino)methyl)phenyl)-1H-pyrrolo[2,3-b]pyridin-3-yl)quinolin-8-ol]: the IC50 amounted to 66 ± 2.5 nM.
